Data published in patent publication US5721247A, “Isothiourea derivatives useful in therapy” (priority 1994, dated 1998).

How the values were obtained:
[1] = biological target: T1, neuronal nitric oxide synthase (Rattus norvegicus, UniProt P29476); experiment: Screen for neuronal nitric oxide synthase inhibiting activity (Screen A); assay type: biochemical
T1 construct: Enzyme was isolated from rat hippocampus or cerebellum; from tissue; host or cells: cerebellum or hippocampus of male Sprague-Dawley rat (20,000 g supernatant)
Experimental: (A) Screen for neuronal nitric oxide synthase inhibiting activity
Enzyme was isolated from rat hippocampus or cerebellum. The cerebellum or hippocampus of a male Sprague-Dawley rat (250-275 g) is removed following CO2 anaesthesia of the animal and decapitation. Cerebellar or hippocampal supernatant is prepared by homogenisation in 50 mM Tris-HCl with 1 mM EDTA buffer (pH 7.2 at 25° C.) and centifugation for 15 minutes at 20,000 g. Residual L-arginine is removed from the supernatant by chromatography through Dowex AG-50W-X8 sodium form and hydrogen form columns successively, and further centrifugation at 1000 g for 30 seconds.
For the assay, 25 μl of the final supernatant is added to each of 12 test tubes containing 25 μl L-arginine solution (of concentration 18 μM ^1 H-L-arginine, 96 nM ^3 H-L-arginine) and either 25 μl of an assay buffer (50 mM HEPES, 1 mM EDTA, 1.5 mM CaCl2, pH 7.4) or 25 μl of test compound in the buffer at 22° C. […]
(§1) Labelled L-citrulline is separated from labelled L-arginine by chromatography over a Dowex AG-50W-X8 200-400 mesh column. […] The L-citrulline is then quantified by scintillation counting. […]

[2] = biological target: T2, endothelial nitric oxide synthase (Homo sapiens, UniProt P29474); experiment: Screen for endothelial nitric oxide synthase inhibiting activity (Screen C); assay type: biochemical
T2 construct: Enzyme may be isolated from human umbilical vein endothelial cells (HUVECs); host or cells: HUVEC (CHAPS-solubilised particulate fraction)
Experimental: (C) Screen for endothelial nitric oxide synthase inhibiting activity
HUVECs were purchased from Clonetics Corp (San Diego, Calif., USA) and cultured to confluency. Cells can be maintained to passage 35-40 without significant loss of yield of nitric oxide synthase. When cells reach confluency, they are resuspended in Dulbecco's phosphate buffered saline, centrifuged at 800 rpm for 10 mins, the cell pellet homogenised in ice-cold 50 mM Tris-HCl, 1 mM EDTA, 10% glycerol, 1 mM phenylmethylsulphonylfluoride, 2 μM leupeptin at pH 4.2. Following centrifugation at 34,000 rpm for 60 mins, the pellet is solubilised in the homogenisation buffer which also contains 20 mM CHAPS. After a 30 min incubation on ice, the suspension is centrifuged at 34,000 rpm for 30 mins. The resulting supernatant is stored at -80° C. until use.
For the assay, 25 μl of the final supernatant is added to each of 12 test tubes containing 25 μl L-arginine solution (of concentration 12 μM ^1 H-L-arginine, 64 nM ^3 H-L-arginine) and either 25 μl of an assay buffer (50 mM HEPES, 1 mM EDTA, 1.5 mM CaCl2, pH 7.4) or 25 μl of test compound in the buffer at 22° C. […]
as §1

[3] = biological target: T3, macrophage nitric oxide synthase (Mus musculus, UniProt P29477); experiment: Screen for macrophage nitric oxide synthase inhibiting activity (Screen B); assay type: biochemical, murine; conditions: ratio of IC50 in Screen B (macrophage isoform) to IC50 in Screen A (neuronal isoform)
T3 construct: Nitric oxide synthase is produced by cells in response to interferon-γ (IFNγ) and lipopolysaccharide (LPS); endogenous in cells; host or cells: J774A-1 murine macrophage cell line, induced with LPS and IFN-gamma (cell lysate)
Source text: The enzyme nitric oxide synthase has a number of isoforms and compounds of formula I, and pharmaceutically acceptable salts thereof, may be screened for nitric oxide synthase inhibiting activity by procedures based on those of Bredt and Snyder in Proc. Natl. Acad. Sci. (1990) 87, 682-685 and Forstermann et. al., Eur. J. Pharm. (1992) 225, 161-165 as follows. Nitric oxide synthase converts ^3 H-L-arginine to ^3 H-L-citrulline which can be separated by cation exchange chromatography and quantified by scintillation counting.
(B) Screen for macrophage nitric oxide synthase inhibiting activity
Enzyme is prepared, after induction, from the cultured murine macrophage cell line J774A-1 (obtained from laboratories of the Imperial Cancer Research Fund). J774A-1 cells are cultured in Dulbecco's Modified Eagles Medium (DMEM) supplemented with 10% foetal bovine serum, 4 mM L-glutamine and antibiotics (100 units/ml penicillin G, 100 μg/ml streptomycin & 0.25 μg/ml amphotericin B). Cells are routinely grown in […] flasks containing 35 ml medium kept at 37° C. and in a humidified atmosphere containing 5% CO2.
Nitric oxide synthase is produced by cells in response to interferon-γ (IFNγ) and lipopolysaccharide (LPS). […]
Labelled L-citrulline is separated from labelled L-arginine using Dowex AG-50W. […] After allowing the samples to dry the L-citrulline is quantified by scintillation counting. […]

T2 sequence (P29474 2-1203): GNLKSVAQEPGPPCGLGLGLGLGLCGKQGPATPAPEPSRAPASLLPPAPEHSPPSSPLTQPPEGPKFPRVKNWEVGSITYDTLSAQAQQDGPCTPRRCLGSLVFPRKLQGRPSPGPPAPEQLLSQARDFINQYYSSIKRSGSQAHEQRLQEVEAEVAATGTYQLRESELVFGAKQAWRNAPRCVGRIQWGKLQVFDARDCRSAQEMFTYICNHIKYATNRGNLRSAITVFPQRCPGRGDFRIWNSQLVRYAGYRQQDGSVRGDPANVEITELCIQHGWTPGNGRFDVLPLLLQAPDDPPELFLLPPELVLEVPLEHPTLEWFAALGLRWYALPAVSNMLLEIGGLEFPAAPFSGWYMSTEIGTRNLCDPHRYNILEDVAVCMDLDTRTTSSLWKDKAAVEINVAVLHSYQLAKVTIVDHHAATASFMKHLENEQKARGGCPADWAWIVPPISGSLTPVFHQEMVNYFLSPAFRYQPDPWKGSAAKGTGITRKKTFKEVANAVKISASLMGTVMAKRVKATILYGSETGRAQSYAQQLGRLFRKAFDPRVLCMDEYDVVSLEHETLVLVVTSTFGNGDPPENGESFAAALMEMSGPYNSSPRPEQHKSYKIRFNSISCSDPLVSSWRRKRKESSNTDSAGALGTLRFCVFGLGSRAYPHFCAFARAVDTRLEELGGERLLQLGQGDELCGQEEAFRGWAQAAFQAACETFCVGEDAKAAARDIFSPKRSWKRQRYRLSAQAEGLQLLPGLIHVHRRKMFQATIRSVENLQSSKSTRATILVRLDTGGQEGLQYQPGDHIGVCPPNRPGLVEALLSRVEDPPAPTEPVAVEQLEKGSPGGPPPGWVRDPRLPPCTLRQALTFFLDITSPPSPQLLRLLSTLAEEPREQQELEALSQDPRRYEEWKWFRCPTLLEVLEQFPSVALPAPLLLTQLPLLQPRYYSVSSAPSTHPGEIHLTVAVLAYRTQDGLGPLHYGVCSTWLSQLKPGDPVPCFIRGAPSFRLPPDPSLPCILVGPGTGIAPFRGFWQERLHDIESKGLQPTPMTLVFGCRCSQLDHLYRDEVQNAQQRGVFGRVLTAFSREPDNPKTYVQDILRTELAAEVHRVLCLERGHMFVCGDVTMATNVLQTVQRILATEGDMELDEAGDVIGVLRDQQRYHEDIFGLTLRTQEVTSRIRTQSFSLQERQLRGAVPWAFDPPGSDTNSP
T1 sequence (P29476 whole entry): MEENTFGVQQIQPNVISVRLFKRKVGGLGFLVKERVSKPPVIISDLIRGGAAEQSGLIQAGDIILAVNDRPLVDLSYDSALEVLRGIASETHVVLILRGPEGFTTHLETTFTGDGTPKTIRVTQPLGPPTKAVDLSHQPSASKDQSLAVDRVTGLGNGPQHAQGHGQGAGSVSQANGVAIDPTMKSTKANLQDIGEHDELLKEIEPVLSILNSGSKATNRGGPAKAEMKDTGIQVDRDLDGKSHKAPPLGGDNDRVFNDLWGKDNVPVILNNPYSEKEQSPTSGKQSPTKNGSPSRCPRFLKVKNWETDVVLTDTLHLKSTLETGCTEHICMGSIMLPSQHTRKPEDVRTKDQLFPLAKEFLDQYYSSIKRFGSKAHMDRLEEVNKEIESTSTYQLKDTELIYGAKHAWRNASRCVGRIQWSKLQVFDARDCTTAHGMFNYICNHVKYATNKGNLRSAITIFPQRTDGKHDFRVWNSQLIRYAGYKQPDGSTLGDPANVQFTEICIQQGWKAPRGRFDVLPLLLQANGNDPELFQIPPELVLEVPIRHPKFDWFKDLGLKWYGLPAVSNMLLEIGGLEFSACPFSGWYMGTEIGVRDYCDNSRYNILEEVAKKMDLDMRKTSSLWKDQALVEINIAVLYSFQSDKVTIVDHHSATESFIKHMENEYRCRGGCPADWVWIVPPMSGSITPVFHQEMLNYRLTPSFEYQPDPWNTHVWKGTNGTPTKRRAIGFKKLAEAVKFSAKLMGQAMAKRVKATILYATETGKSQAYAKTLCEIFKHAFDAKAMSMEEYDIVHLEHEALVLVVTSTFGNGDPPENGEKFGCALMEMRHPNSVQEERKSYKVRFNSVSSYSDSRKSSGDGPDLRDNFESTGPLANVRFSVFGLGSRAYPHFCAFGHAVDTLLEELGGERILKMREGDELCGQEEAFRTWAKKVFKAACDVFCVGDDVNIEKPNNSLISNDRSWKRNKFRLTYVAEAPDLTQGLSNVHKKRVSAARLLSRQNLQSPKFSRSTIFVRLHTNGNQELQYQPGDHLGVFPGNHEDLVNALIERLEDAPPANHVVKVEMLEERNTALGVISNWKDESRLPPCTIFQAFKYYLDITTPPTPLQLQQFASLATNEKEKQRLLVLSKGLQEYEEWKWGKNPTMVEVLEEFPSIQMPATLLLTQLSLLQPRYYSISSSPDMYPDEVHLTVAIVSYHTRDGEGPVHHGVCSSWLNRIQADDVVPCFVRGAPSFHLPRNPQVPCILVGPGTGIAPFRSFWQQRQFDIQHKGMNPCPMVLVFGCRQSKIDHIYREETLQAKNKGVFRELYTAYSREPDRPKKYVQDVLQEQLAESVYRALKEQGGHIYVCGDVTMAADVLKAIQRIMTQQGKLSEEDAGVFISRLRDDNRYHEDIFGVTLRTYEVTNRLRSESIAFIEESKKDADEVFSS

Structure (SMILES)	IC50 ([1]; Screen A, neuronal isoform, rat hippocampus or cerebellum supernatant)	IC50 values more than 10 times that obtained in Screen A ([2]; ratio of IC50 in Screen C (endothelial isoform) to IC50 in Screen A (neuronal isoform))	IC50 values more than 10 times that obtained in Screen A [3]	inhibition at 1 µM ([1]; reference standard at a concentration of 1 μM)	inhibition at 1 µM ([2]; reference standard at a concentration of 1 μM, HUVEC enzyme)
CCSC(=N)Nc1ccc(CCN(C)Cc2ccccc2)cc1 [Example 1, N-(4-(2-((Phenylmethyl)(methyl)amino)ethyl)phenyl)carbamimidothioic acid ethyl ester]	< 10 µM	more than 10 times	more than 10 times		
N=C(NCCC[C@H](N)C(=O)O)N[N+](=O)[O-] [N-nitro-L-arginine, reference compound]				60%	70 to 90%
